86 molecules from a melting point compilation (Tetko et al.; mined from patent text by program, amines drawn as free bases though some values may be those of a salt) can be followed below.

Each structure is given as a SMILES string.

The term melting point denotes the temperature, or range, at which the solid turns liquid. In turn, `CC(C)Cn1c(=O)n(C)c(=O)c2c(Sc3cccc(O)c3)n(Cc3cccc4ccccc34)cc21` showed a melting point of 150 to 151 °C.

In turn, `CCOC(=O)[C@@H](O)[C@@H](NC(=O)c1ccccc1)c1ccccc1` showed a melting point of 160 to 161 °C.

Regarding `CN1CCCN=C1C(Br)(Br)[N+](=O)[O-]`, the melting point lay within 106 to 107 °C.

Regarding `CCC1(CC(=O)O)OCCc2c1[nH]c1c(C(C)C)cccc21` (stereo unspecified), the melting point was 158 to 159 °C.

Molecule `COc1ccc(C(O)CN2CC=C(C3=NNC(=O)CS3)CC2)cc1` (stereo unspecified) registered a melting point of 197 to 198 °C.

In turn, `COc1ccc(S(C)(=O)=O)cc1N` gave a melting point of 174 to 178 °C.

For the molecule `CCOC(=O)CNC(=O)[C@@H]1CS[C@H](c2ccccc2O)N1C(=O)CCSC(=O)c1ccccc1`, the melting point was in the range of 134 to 135 °C.

`N#CSC1=Nc2ccccc2Sc2nccn21`: the melting point is 111 to 113 °C.

As for `CCOC(=O)c1cc2cccc(N(C)S(=O)(=O)c3ccccc3OC)c2n1COC`, the melting point is 124 to 125 °C.

In turn, `CC(C)CCC(=O)CC1c2ccccc2C(=O)N1c1ccc2ccc(Cl)nc2n1` (stereo unspecified) had a melting point of 172 °C.

As for `Cc1ccc(S(=O)(=O)Oc2ccc(C=O)cc2)cc1`, the melting point fell in the range of 70 to 72 °C.

In the case of `CC1(C)C(=O)N(C(=O)NCC2CCN(CC3(C(=O)O)CCC3)CC2)c2cc(F)ccc21`, the melting point came to 193 °C.

As for `O=[N+]([O-])c1ccc2nc(-c3cccs3)oc2c1`, the melting point is 208 to 210 °C.

`CN1C(=O)CC[C@]2(C)c3ccc(SC(c4ccccc4)c4ccccc4)cc3CC[C@@H]12` gave a melting point of 102 to 104 °C.

Consider `CNC(=S)N(C)c1cncc(C(F)(F)F)c1`, for which the melting point was in the range of 86 to 90 °C.

As for `Cc1c(C2=NNC(=O)SC2C)ccc2c1C(C)(C)C(=O)N2` (stereo unspecified), the melting point is 279 °C.

The molecule `O=C(NCCN1CCN(c2cccc3c2OCC(CO)O3)CC1)c1ccc(F)cc1` (stereo unspecified) came in with a melting point of 183 to 185 °C.

As for `CC(C)=CCn1c(N2CCC(N)C2)nc2c1c(=O)n(C)c(=O)n2C` (stereo unspecified), the melting point is 119 °C.

For the molecule `CCCCCCCCNC(=O)CP(=O)(O)O`, the melting point was in the range of 142 to 143 °C.

As for `Cc1ccc(-c2ccc(C(=O)Nc3ccc4nc(CN5CCCC5)ccc4c3)cn2)cc1`, the melting point lay in the range of 207 to 209 °C.

Turning to `O=C(Nc1cc(N2CCNCC2)cc(C(F)(F)F)c1)c1cccc2cc(Oc3ccnc(NC(=O)C4CC4)c3)ccc12`, the melting point lay within 244 to 247 °C.

Regarding `CC(CSC(=O)c1ccccc1)C(=O)N(CC(=O)O)C1Cc2ccccc2C1` (stereo unspecified), the melting point is 113 to 115 °C.

`O=C1c2ccccc2C(Cc2ccnc(Br)c2)(Cc2ccnc(Br)c2)c2ccccc21` displayed a melting point of 182 to 183 °C.

The molecule `O=C(NCCCCCCOC(=O)N1CCC2(CCCC2)CC1)OC1CCN(C(=O)Oc2ccc(Oc3ccccc3)cc2)CC1` gave a melting point of 83 to 85 °C.

As to `C[C@]1(N2Cc3c(OCc4ccc(CN5CCOCC5)cc4)cccc3C2=O)CCC(=O)NC1=O`, the melting point was in the range of 178 to 180 °C.

For the molecule `O=S(=O)(c1nc2c([nH]1)-c1ccc(F)cc1Oc1ccccc1-2)C(F)(F)C(F)F`, the melting point lay in the range of 171 to 173 °C.

In turn, `CCn1nnc(C(CO)=C(c2ccc(F)cc2)c2ccc(F)cc2)n1` displayed a melting point of 82 to 84 °C.

With `Cn1c(=O)c2c(Br)cccc2n2cnc(-c3nc(C4CC4)no3)c12`, the melting point lay within 246 to 247 °C.

The molecule `NC(=O)c1cn(CC2CC2)c2ccccc12` registered a melting point of 170 °C.

In turn, `CN(c1cccc2cc(C3=NCC(CC(=O)N4CCC[C@H]4C(=O)O)S3)[nH]c12)S(=O)(=O)c1ccccc1C(F)(F)F` (stereo partly specified) came in with a melting point of 132 to 135 °C.

`CCCn1c(=O)c2c(NC)n(C(=O)OC)nc2n(Cc2cccc(Cl)c2)c1=O` showed a melting point of 164 to 166 °C.

The molecule `Cc1ccc(S(=O)(=O)OCC2COc3cc(C)ccc3O2)cc1` (stereo unspecified) displayed a melting point of 84 °C.

As to `OCc1ccccc1C(F)(F)C(F)(F)c1ccccc1`, the melting point fell in the range of 80 to 81 °C.

With `O=C1Nc2ccccc2C(c2ccccc2)N1CC1CCN(Cc2ccccc2)CC1` (stereo unspecified), the melting point lay within 163 to 165 °C.

In turn, `O=C(O)CCC(=O)c1ccc(NC(=O)CCCl)cc1` had a melting point of 181 to 182 °C.

In turn, `Nc1ccc(S(=O)(=O)c2ccnc(N3CCCC3)c2)cc1` came in with a melting point of 186 to 187 °C.

Molecule `Cc1nc(N)c2ncn(CCOc3ccccc3)c2c1C` showed a melting point of 197 to 199 °C.

`c1ccc2c(c1)CC(CN1CCN(c3ccc4c(c3)CCO4)CC1)C2`: the melting point lay within 180 to 182 °C.

`CS(=O)(=O)c1cc(Br)ccc1CN1C(=O)c2ccccc2C1=O` gave a melting point of 188 to 190 °C.

Molecule `CC(C)[C@H](NC(=O)N(C)Cc1nc2ccccc2[nH]1)C(=O)N[C@@H](Cc1ccccc1)[C@@H](O)C[C@H](Cc1ccccc1)NC(=O)OCc1cccnc1` yielded a melting point of 110 to 114 °C.

`FC(F)(F)c1nnc2nc(-c3ccccc3)c3cc(Cl)ccc3n12` registered a melting point of 241 to 242 °C.

In turn, `O=C(O)c1ccccc1C(=O)NCCCSc1ccncc1` displayed a melting point of 151 to 153 °C.

Molecule `Clc1ccc2c(Nc3ccc(CNC4CCN(Cc5ccccc5)CC4)cc3)ccnc2c1` returned a melting point of 160 to 164 °C.

`CC1CN(c2c(F)cc3c(=O)c(C(=O)O)cn(C4CC4)c3c2F)CC1CN` (stereo unspecified) showed a melting point of 249 to 252 °C.

`CCn1cc(C(=O)O)c(=O)c2cc(N)c(-c3cc(C)nc(C)c3)cc21` yielded a melting point of 288 to 290 °C.

In the case of `O=C(NCCn1ccnc1)c1sc2ccccc2c1Cl`, the melting point lay in the range of 132 to 134 °C.

`CCCSc1nc(NC2CC2c2ccc(OC)c(C)c2)c2nnn(C3CC(O)C(O)C3O)c2n1` (stereo unspecified) displayed a melting point of 135 to 136 °C.

Take `Cc1ccc(NC(=O)CN2CCNCC2)cc1Nc1ncc(-c2cccnc2)o1`: the melting point is 176 to 178 °C.

Consider `N#Cc1cccc(CN2C(=O)c3ccccc3C2=O)n1`, for which the melting point is 205 °C.

Take `CSc1nn2c(N3CCNCC3)cc(C(C)(C)C)nc2c1S(=O)(=O)c1ccccc1`: the melting point lay within 236 to 237 °C.

Regarding `COC(=O)C(=Cc1ccc(OC)c(OCCc2ccccc2)c1)C(=O)OC`, the melting point was in the range of 105 to 106 °C.

In the case of `COc1ccccc1C(=O)NS(=O)(=O)c1ccc(NC(=O)c2ccc(Cl)cc2Cl)cc1`, the melting point lay in the range of 140 to 146 °C.

Take `O=C(NCc1ccc(Cl)cc1)c1cn(Cc2cccc(F)c2)c2sc(CN3CCOCC3)cc2c1=O`: the melting point lay within 214 to 215 °C.

For `CC(=NC1CCCCC1)N(C)C=Nc1ccc(C)cc1C`, the melting point lay in the range of 37 to 39 °C.

The molecule `CCOC(=O)c1oc2ccc(Cl)cc2c1O` had a melting point of 100 to 102 °C.

As for `CC(C)(C(=O)O)c1ccc(OCCCc2cc3c(cc2O)CC(CCc2ccccc2)O3)cc1` (stereo unspecified), the melting point is 134 to 136 °C.

In turn, `CN1C(=O)Cc2cccc(Cl)c21` yielded a melting point of 111 to 113 °C.

`CN(C)CCc1c(CC(N)=O)c2ccccc2n1C` registered a melting point of 131 to 134 °C.

In turn, `COc1cccc(N=C(NC#N)Oc2ccccc2)c1` yielded a melting point of 170 to 171 °C.

Molecule `OCC1CNc2ncccc2O1` (stereo unspecified) had a melting point of 123 to 124 °C.

For `O=c1oc(C=Cc2ccccc2)nc2ccccc12`, the melting point was in the range of 145 to 147 °C.

`O=C(O)CCc1cccc(-c2nc(=O)c3ccc(F)cc3s2)n1`: the melting point fell in the range of 215 to 217 °C.

Consider `Cc1ccccc1-c1ccc(C(=O)N2Cc3ccc(C(=O)NCCCCc4ccccc4)n3Cc3ccccc32)cc1C`, for which the melting point lay within 129 to 131 °C.

`Clc1ccc2c(c1)CSCCCN2` yielded a melting point of 54 to 55 °C.

Molecule `O=C1C(=O)N2CCCc3cc(Cl)cc1c32` showed a melting point of 188 to 189 °C.

In the case of `CCOc1ccc(C2=NN(c3ccc(C(=O)N4CCN(c5ccc(C(F)(F)F)cn5)CC4)cc3)C(=O)[C@@H]3CC=CC[C@H]23)cc1OCC`, the melting point was 121 to 123 °C.

For the molecule `CCCCc1nc(S(C)=O)c(C(=O)O)n1Cc1ccc(-c2ccccc2C(=O)O)cc1` (stereo unspecified), the melting point stood at 208 °C.

`Cc1ccc(-c2ncc(N(CCCCOCC(=O)O)C(C)C)nc2-c2ccc(C)cc2)cc1`: the melting point was in the range of 155 to 156 °C.

On to `O=C(CCc1ccc(F)cc1)Cn1ccnc1`, for which the melting point lay in the range of 69 to 70 °C.

`COC(=O)c1cc(-c2ccccn2)n(-c2ccc(Cl)nn2)n1` showed a melting point of 164 to 165 °C.

In turn, `CCn1c(C)nc2cc(C(F)(F)F)c(Cl)c([N+](=O)[O-])c21` gave a melting point of 114 to 116 °C.

Molecule `COc1ccccc1COc1ccc(S(=O)(=O)c2ccc(C)nc2Nc2ccc(OC(F)F)cc2Cl)cc1` gave a melting point of 124 to 125 °C.

Turning to `CCCN(CCC)[C@H]1Cc2c[nH]c3ccc(-c4ccno4)c(c23)C1`, the melting point lay in the range of 126 to 127 °C.

Regarding `COc1ccc(CN(C)CCCOc2ccc(NC(=O)c3cccc4c(=O)c5cccc(F)c5[nH]c34)cc2)cc1OC`, the melting point stood at 150 °C.

Take `CCn1cc(C(=O)O)c(=O)c2cc(F)c(N3CCN(C)CC3)nc21`: the melting point is 228 to 230 °C.

The molecule `CCOC(=O)C1=C(C)NC(N)=C(C(=O)OCC)C1c1cccc(Cl)c1` (stereo unspecified) registered a melting point of 157 to 159 °C.

With `CCCc1c(C(=O)OCC)c2c3c(ccc2n1C)OC1c2ccc(SC)cc2CCN1C3` (stereo unspecified), the melting point was 139 to 143 °C.

Take `CCCCc1nn(-c2cc(NC(=O)CC)ccc2Br)c(=O)n1Cc1ccc(-c2ccccc2S(=O)(=O)NC(=O)OC(C)(C)C)cc1F`: the melting point was in the range of 123 to 126 °C.

The molecule `NCC1COc2cc(F)cc(-c3ccccc3C(F)(F)F)c2N1` (stereo unspecified) yielded a melting point of 99 °C.

`CC(C)=NOCCCCn1cnc2c(N)nc3c(c21)CCCC3` had a melting point of 151 to 153 °C.

As for `O=[N+]([O-])c1cc(Cl)c(Cl)c(Cl)c1Cl`, the melting point lay in the range of 41 to 44 °C.

For `COc1ccc(C(C)N(C)CCCOc2ccc(S(=O)(=O)C3=C(C(C)C)N(C)CC3)cc2)cc1OC` (stereo unspecified), the melting point was in the range of 100 to 102 °C.

Regarding `Cc1c(-c2ccccc2)oc2c(C(=O)NCCCN3CCN(c4cccc5c4OCC5)CC3)cccc2c1=O`, the melting point was in the range of 94 to 95 °C.

The molecule `CCS(=O)CC(=O)c1ccc(-c2ccccc2F)cc1` (stereo unspecified) returned a melting point of 91 to 93 °C.

For `CC(O)c1cccc(-c2cc3c(=O)n(NS(C)(=O)=O)c(=O)[nH]c3cc2C(F)(F)F)c1` (stereo unspecified), the melting point lay within 165 to 169 °C.

`CC(=O)OC1CSC(Oc2cccnc2[N+](=O)[O-])C(OC(C)=O)C1OC(C)=O` (stereo unspecified) had a melting point of 178 °C.
